The text below walks through data of US20230364111A1 (priority 2020, published 2023).

The test system of data set [1] is SARS-CoV-2 (isolate USA WA1/2020). Put plainly: SARS-CoV-2 infection of Calu-3 cells (dsRNA+ cells, automated microscopy). It counts as cell-based. As to conditions: Severe acute respiratory syndrome coronavirus 2, Calu-3, 48 h. As for the experimental part: FIGS. 12A-12C depict dose-response curves for Oxy232. (FIG. 12A) Secreted viral RNA in the VeroE6 culture supernatant 24 h post-inoculation was quantified by real-time RT-PCR. Cell viability of Oxy232 treated cells evaluated with an MTT assay. (FIG. 12B) Secreted viral RNA of 3 SARS-CoV-2 strains in the VeroE6 culture supernatant 24 h post-inoculation was quantified by real-time RT-PCR. (FIG. 12C) Calu-3 (ATCC) cells were pretreated with Oxy232 for 2 hours prior to continuous infection with SARS-CoV-2 (isolate USA WA1/2020) at MOI=0.5. 48 h post-infection, cells were fixed, immune-strained, and imaged by automated microscopy for infection (dsRNA+ cells/total cell number) and cell number.
According to a previously published report (Ohashi et al., Identification of Anti-Severe Acute Respiratory Syndrome-Related Coronavirus 2 (SARS-CoV-2) Oxysterol Derivatives In Vitro. Int J Mol Sci. 2021; 22(6):3163. PMCID: PMC8003796) inventors have tested a collection of naturally occurring and semisynthetic oxysterol derivatives in a SARS-CoV-2 cell culture infection assay in VeroE6/TMPRSS2 cells. […] See, Ohashi et al., Int J Mol Sci. 2021; 22(6):3163 and Dittmar et al. Drug repurposing screens reveal cell-type-specific entry pathways and FDA-approved drugs active against SARS-Cov-2. Cell Rep. […] PMCID: PMC7985926. […] Without wishing to be bound by a theory, biological activities of oxysterols, including measures of cell viability, can heavily depend on in vitro assay conditions, such as the fetal bovine serum concentration or the duration of pretreatment with the compounds, among other factors, that may not translate to the in vivo safety of the compounds.

The test system of data set [2] is VeroE6/TMPRSS2 cells. Conditions: read-out: CC50 (VeroE6); VeroE6.
Data set [3] is described as follows: in vitro. As to conditions: human.
The test system of data set [4] is SARS-CoV-2 Wk-521 strain. Put plainly: SARS-CoV-2 infection assay, viral RNA in culture supernatant (VeroE6/TMPRSS2 cells). Type of data set: cell-based.
Data set [5] in a line: in vitro. Conditions: African green monkey.

Where two headings read alike, the source gives them in different places.

As for `CCC(CC)COC(=O)[C@H](C)N[P@](=O)(OC[C@H]1O[C@@](C#N)(c2ccc3c(N)ncnn23)[C@H](O)[C@@H]1O)Oc1ccccc1` [RDV, remdesivir, reference compound], the IC50 is 80 nM in data set [1] (read-out: IC50 (Calu-3)); 1500 nM in data set [4] (Severe acute respiratory syndrome coronavirus 2, Vero C1008, read-out: IC50 (VeroE6)); 1500 nM in data set [4] (Severe acute respiratory syndrome coronavirus 2, SARS-CoV-2 viral RNA in culture supernatant, 24 h post-inoculation, VeroE6/TMPRSS2 cells, read-out: IC50). Besides, the IC90 in data set [1] (read-out: IC90 (Calu-3)) came to 160 nM; in data set [4] (Severe acute respiratory syndrome coronavirus 2, Vero C1008, read-out: IC90 (VeroE6), SARS-CoV-2, VeroE6) it was 1500 nM; in data set [4] (Severe acute respiratory syndrome coronavirus 2, VeroE6/TMPRSS2, 24 h, SARS-CoV-2 viral RNA in culture supernatant, 24 h post-inoculation, VeroE6/TMPRSS2 cells, read-out: IC90), 2500 nM. Also, the CC50 in data set [2], in data set [3] and in data set [5] was over 10 µM in each case.

For orientation: IC50 means the concentration that gives 50% inhibition. The term IC90 denotes the concentration needed for an effect of 90%.
